From patent US11292812B2, “3′3′-cyclic dinucleotides” (Institute of Organic Chemistry and Biochemistry, ASCR, V.V.I, priority 2018, dated 2022)

How the values were obtained:
AQ STING (G230A-R293Q) = target: T1, AQ STING (G230A-R293Q) (Homo sapiens, UniProt Q86WV6, G230A/H232R/R293Q); assay: Differential Scanning Fluorimetry with AQ STING; format: binding; conditions: thermal shift, truncated human AQ STING 0.1 mg/ml, 150 μM CDN; for ΔTm at 150 µM: read-out: DSF ΔTm AQ STING
T1 construct: truncated human WT STING or AQ STING (amino acid residues 140-343); 8xHis (N, cleaved yes); SUMO (N, cleaved yes); made in house; host or cells: E. coli Rosetta-gami B (DE3)
Procedure: (§1) Purified PCR products were cleaved with restriction enzymes BamHI (cat. #R0136S, NEB, Ipswich, USA) and NotI (cat. #R0189S, NEB, Ipswich, USA) and cloned into the pSUMO vector linearized with the identical enzymes.
(§2) DNase I (cat. #D5025, Sigma Aldrich, Czech Republic) and RNase A (cat. #R6513, Sigma Aldrich, Czech Republic) were added (final concentration 50 μg/ml) together with MgCl2 (final concentration 5 mmol·l^−1) to the homogenate and bacteria were lysed using French Press G-M™ High-Pressure Cell Press Homogenizer (1500 psi, 3 cycles). […] The resin was poured into a chromatography column, washed with 50 ml buffer A (50 mmol·l^−1 TrisCl (pH 8.0), 800 mmol·l^−1 NaCl, 3 mmol·l^−1 β-mercaptoethanol; 10% glycerol; 20 mmol·l^−1 imidazole) and 8-His-SUMO tagged STING proteins were eluted with 15 ml buffer A containing 300 mmol·l^−1 imidazole. […] Proteins were concentrated with Amicon® Ultra-15 10 K device (cat. #UFC901008, Merck Millipore, Billerica, USA) and flash frozen in liquid N2.
(§3) 20 μL solutions of the reaction mixtures were pipetted in triplicates into 96 well optical reaction plates and thermal denaturation of samples were performed on real time PCR cycler (LightCycler® 480 Instrument II—Roche, Basel, Switzerland). The first derivative of the thermal denaturation curves was performed to calculate denaturing temperatures of STING-CDN complexes and STING apoproteins. The thermal shift for each CDN was calculated by subtracting the average denaturing temperature of STING apoprotein from the average denaturing temperature of STING CDN complex.

WT STING [1] = target: T2, WT STING (Homo sapiens, UniProt Q86WV6, H232R); assay: Differential Scanning Fluorimetry with WT STING; format: binding; parameters: truncated human WT STING or AQ STING (amino acid residues 140-343); 8xHis (N, cleaved yes); SUMO (N, cleaved yes); made in house; host or cells: E. coli Rosetta-gami B (DE3); conditions: thermal shift, truncated human WT STING 0.1 mg/ml, 150 μM CDN; for ΔTm at 150 µM: read-out: DSF ΔTm WT STING
Procedure: as §1, §2, §3
Target sequence in this assay (Q86WV6 140-343 H232R): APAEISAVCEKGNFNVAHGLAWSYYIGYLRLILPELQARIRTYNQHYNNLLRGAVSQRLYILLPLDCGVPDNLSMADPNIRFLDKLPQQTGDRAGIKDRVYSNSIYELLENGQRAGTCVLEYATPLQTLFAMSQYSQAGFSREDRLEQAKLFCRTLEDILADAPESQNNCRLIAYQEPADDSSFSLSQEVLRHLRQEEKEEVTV

WT STING [2] = target: T2, WT STING; assay: Digitonin assay using 293T wtSTING-FL reporter cells; format: cell-based; conditions: 293T wtSTING-FL cells, ISRE firefly luciferase reporter, digitonin buffer 30 minutes, then 5 hours
Description: Two complementary oligonucleotides of the sequence […] […] […] […] […] […] […] The oligonucleotides were mixed in equal molar amounts, hybridized, and cleaved by restriction endonucleases HindIII (cat. #. R0104S, NEB, Ipswich, USA) and BglII (cat. #R0144S, NEB, Ipswich, USA). Ultimately, they were ligated into plasmid pGL4.27 (cat. #E6651, Promega, Madison, USA) linearized with the same enzymes. As result the sequence with four ISRE sites was placed upstream of the minimum promoter of firefly luciferase reporter gene.
After 5 minutes incubation at room temperature (RT), 250 μL of the mixture was added dropwise to the cells in one well. Cells were incubated 36 hours at 37° C. with 5% CO2, and then detached with 0.05% Trypsin and 0.22 g/L EDTA (both cat. #L0941, Biowest, Riverside, USA).
Transfected cells were seeded onto poly-D-lysine coated six well plates at density 50,000 cells per 1 cm^2 in DMEM medium with high glucose containing 10% heat inactivated FBS, 30 μg/mL blasticidin (cat. #ant-bl-05, InvivoGen, San Diego, USA), 0.06 mg/ml Penicillin G and 0.1 mg/ml Streptomycin Sulfate (both cat. #. L0018, Biowest, Riverside, USA). The medium was replenished every 3-4 days until visible colonies of cells resistant to blasticidin were formed.
Blasticidin resistant cells stably expressing WT STING were further transfected with pGL64.27-4×ISRE plasmid following the same procedure as described above. […] Homogeneous culture of stably double transfected cells was prepared by limiting dilution of cells in 96 well plates and wells with cells were selected that originated from a single cell.
The medium was removed next day and three fold serial dilutions of compounds in Digitonin buffer containing 50 mmol·l^−1 HEPES (cat. #H3375, Sigma Aldrich, Czech Republic) pH 7.0, 100 mmol·l^−1 KCl, 3 mmol·l^−1 MgCl2, 0.1 mmol·l^−1 DTT (cat. #D0632, Sigma Aldrich, Czech Republic), 85 mmol·l^−1 Sucrose (cat. #S7903, Sigma Aldrich, Česká Republika), 0.2% BSA (cat. #A2153, Sigma Aldrich, Czech Republic), 1 mmol·l^−1 ATP (cat. #A1852, Sigma Aldrich, Czech Republic), 0.1 mmol·l^−1 GTP (cat. #G8877, Sigma Aldrich, Czech Republic), and 10 μg/mL Digitonin A (cat. #D141, Sigma Aldrich, Czech Republic) were added to the cells. The buffer was removed after 30 minutes incubation at 37° C. with 5% CO2, the cells were washed once with 100 μl of cultivation medium, and 100 μl of medium was added to each well. The plates with cells were incubated for 5 hours at 37° C. with 5% CO2, 50 μl of the medium was removed and 30 μl of ONE-Glo™ Luciferase Assay System reagent (cat. #E6120, Promega, Madison, USA) was added to each well. Luminesce was read on Synergy H1 (Biotek, Winooski, USA).
Target sequence in this assay (Q86WV6 whole entry H232R, the tested form may be a part): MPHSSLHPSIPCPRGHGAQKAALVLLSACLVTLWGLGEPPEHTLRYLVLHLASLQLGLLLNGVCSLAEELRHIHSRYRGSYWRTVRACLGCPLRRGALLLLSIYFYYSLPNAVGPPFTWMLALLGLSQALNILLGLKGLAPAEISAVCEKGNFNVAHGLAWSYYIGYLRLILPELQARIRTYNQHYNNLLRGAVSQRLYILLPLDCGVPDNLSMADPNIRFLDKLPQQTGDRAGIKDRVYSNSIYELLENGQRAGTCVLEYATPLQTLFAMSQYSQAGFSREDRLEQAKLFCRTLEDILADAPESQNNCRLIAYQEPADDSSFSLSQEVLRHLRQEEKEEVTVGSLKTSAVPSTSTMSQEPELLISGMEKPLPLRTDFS

T1 sequence (Q86WV6 140-343 G230A/H232R/R293Q): as the sequence (Q86WV6 140-343 H232R) above, with G91A, R154Q counted along it

In the case of Nc1nc2c(ncn2[C@@H]2O[C@@H]3COP(=O)(O)O[C@@H]4[C@H](O)[C@@H](COP(=O)(O)O[C@@H]2[C@@H]3O)O[C@H]4n2cnc3c(N)ncnc32)c(=O)[nH]1 [2′2′-cGAMP, reference compound], the “DSF ΔTm AQ STING” value (AQ STING (G230A-R293Q)) is reported as 19.4 °C, the “DSF ΔTm WT STING” value (WT STING [1]) is reported as 11.5 °C and the EC50 (WT STING [2]) is reported as 0.03 µM.

Work on Nc1nc2c(ncn2[C@@H]2O[C@@H]3COP(=O)(O)COC4C(O)[C@H](n5cnc6c(N)ncnc65)O[C@@H]4COP(=O)(O)OC3C2O)c(=O)[nH]1 (stereo partly drawn) [Example 3, 2-amino-9-((2R,3R,3aS,7aR,9R,10R,10aS,15aR)-9-(6-amino-9H-purin-9-yl)-3,5,10,13-tetrahydroxy-5,13-dioxidodecahydro-2H-difuro[3,2-d:3′,2′-k][1,3,7,10]tetraoxa[2,8]diphosphacyclotridecin-2-yl)-1,9-dihydro-6H-purin-6-one] yielded a ΔTm at 150 µM (AQ STING (G230A-R293Q)) of 3.1 °C, a ΔTm at 150 µM (WT STING [1]) of 0 °C and an EC50 (WT STING [2]) of 12.5 µM.

In the case of Nc1nc2c(ncn2[C@@H]2O[C@@H]3COP(=O)(O)COC4C(O)[C@H](n5cnc6c(=O)[nH]c(N)nc65)O[C@@H]4COP(=O)(O)COC3C2O)c(=O)[nH]1 (stereo partly drawn) [Example 6, 9,9′-((2R,3R,3aS,8aR,10R,11R,11aS,16aR)-3,6,11,14-tetrahydroxy-6,14-dioxidododecahydrodifuro[3,2-e:3′,2′-l][1,4,8,11]tetraoxa[2,9]diphosphacyclotetradecine-2,10-diyl)bis(2-amino-1,9-dihydro-6H-purin-6-one)], the ΔTm at 150 µM (AQ STING (G230A-R293Q)) is reported as 0 °C, the ΔTm at 150 µM (WT STING [1]) is reported as 0.1 °C and the EC50 (WT STING [2]) is reported as greater than 50 µM.

For Nc1ncnc2c1ncn2[C@@H]1O[C@@H]2COP(=O)(O)O[C@H]3[C@@H](O)[C@H](n4cnc5c(N)ncnc54)O[C@@H]3COP(=O)(O)O[C@H]2[C@H]1O [3′3′-c-di-AMP, reference compound], the “DSF ΔTm AQ STING” value (AQ STING (G230A-R293Q)) was 9.3 °C, the “DSF ΔTm WT STING” value (WT STING [1]) was 2.6 °C and the EC50 (WT STING [2]) was 0.3 µM.

Nc1nc2c(ncn2[C@H]2CC3OCP(=O)(O)OC[C@H]4O[C@@H](n5cnc6c(N)ncnc65)C(F)C4OP(=O)(O)OC[C@H]3O2)c(=O)[nH]1 (stereo partly drawn) [Example 14, 2-amino-9-((2R,3R,3aR,7aR,9R,10aS,15aR)-2-(6-amino-9H-purin-9-yl)-3-fluoro-5,13-dihydroxy-5,13-dioxidodecahydro-2H-difuro[3,2-d:3′,2′-k][1,3,7,10]tetraoxa[2,8]diphosphacyclotridecin-9-yl)-1,9-dihydro-6H-purin-6-one] gave a ΔTm at 150 µM (AQ STING (G230A-R293Q)) of 11.2 °C, a ΔTm at 150 µM (WT STING [1]) of 3.8 °C and an EC50 (WT STING [2]) of 0.09 µM.

With “2-amino-9-((2R,3R,3aS,7aR,9R,10R,10aS,15aR)-2-(6-amino-9H-purin-9-yl)-3,5,10,13-tetrahydroxy-5,13-dioxidodecahydro-2H-difuro[3,2-d:3′,2′-k][1,3,7,10]tetraoxa[2,8]diphosphacyclotridecin-9-yl)-1,9-dihydro-6H-purin-6-one [Example 2]” the “DSF ΔTm AQ STING” value (AQ STING (G230A-R293Q)) was 3.3 °C, the “DSF ΔTm WT STING” value (WT STING [1]) was 0.1 °C and the EC50 (WT STING [2]) was 10.4 µM.

Nc1nc2c(ncn2[C@@H]2O[C@@H]3COP(=O)(O)COC4C(F)[C@H](n5cnc6c(N)ncnc65)O[C@@H]4COP(=O)(O)OC3C2F)c(=O)[nH]1 (stereo partly drawn) [Example 8, 2-amino-9-((2R,3R,3aR,7aR,9R,10R,10aR,15aR)-9-(6-amino-9H-purin-9-yl)-3,10-difluoro-5,13-dihydrox-5,13-diox-idodecahdro-2H-difuro[3,2-d:3′,2′-k][1,3,7,10]tetraoxa[2,8]diphosphacyclotridecin-2-yl)-1,9-dihydro-6H-purin-6-one] showed a ΔTm at 150 µM (AQ STING (G230A-R293Q)) of 18.6 °C, a ΔTm at 150 µM (WT STING [1]) of 10.7 °C and an EC50 (WT STING [2]) of 0.008 µM.

With “2-amino-9-((2R,3aS,7aR,9R,10R,10aR,15aR)-9-(6-amino-9H-purin-9-yl)-10-fluoro-5,13-dihydroxy-5,13-dioxidodecahydro-2H-difuro[3,2-d:3′,2′-k][1,3,7,10]tetraoxa[2,8]diphosphacyclotridecin-2-yl)-1,9-dihydro-6H-purin-6-one [Example 15]” the “DSF ΔTm AQ STING” value (AQ STING (G230A-R293Q)) was 12.7 °C, the “DSF ΔTm WT STING” value (WT STING [1]) was 4.0 °C and the EC50 (WT STING [2]) was 0.11 µM.

With Nc1nc2c(ncn2[C@@H]2O[C@@H]3COP(=O)(O)COC4C(F)[C@H](n5cnc6c(N)ncnc65)O[C@@H]4COP(=O)(O)OC3C2O)c(=O)[nH]1 (stereo partly drawn) [Example 7, 2-amino-9-((2R,3R,3aS,7aR,9R,10R,10aR,15aR)-9-(6-amino-9H-purin-9-yl)-10-fluoro-3,5,13-trihydroxy-5,13-dioxidodecahydro-2H-difuro[3,2-d:3′,2′-k][1,3,7,10]tetraoxa[2,8]diphosphacyclotridecin-2-yl)-1,9-dihydro-6H-purin-6-one] the ΔTm at 150 µM (AQ STING (G230A-R293Q)) was 15 °C, the ΔTm at 150 µM (WT STING [1]) was 5.6 °C and the EC50 (WT STING [2]) was 0.03 µM.

In the case of Nc1ncnc2c1ncn2[C@@H]1O[C@@H]2COP(=O)(O)COC3C(O)[C@H](n4cnc5c(N)ncnc54)O[C@@H]3COP(=O)(O)COC2C1O (stereo partly drawn) [Example 10, (2R,3R,3aR,8aR,10R,11R,11aR,16aR)-2,10-bis(6-amino-9H-purin-9-yl)-3,6,11,14-tetrahydroxvdodecahydrodifuro[3,2-e:3′,2′-l][1,4,8,11]tetraoxa[2,9]diphosphacyclotetradecine 6,14-dioxide], the “DSF ΔTm AQ STING” value (AQ STING (G230A-R293Q)) is reported as −0.2 °C, the “DSF ΔTm WT STING” value (WT STING [1]) is reported as 0.0 °C and the EC50 (WT STING [2]) is reported as greater than 100 µM.

With Nc1ncnc2c1ncn2[C@@H]1O[C@@H]2COP(=O)(O)COC3C(O)[C@H](n4cnc5c(N)ncnc54)O[C@@H]3COP(=O)(O)COC2C1O (stereo partly drawn) [Example 9, (2R,3S,3aS,8aR,10R,11S,11aS,16aR)-2,10-bis(6-amino-9H-purin-9-yl)-3,6,11,14-tetrahydroxvdodecahydrodifuro[3,2-e:3′,2′-l][1,4,8,11]tetraoxa[2,9]diphosphacyclotetradecine 6,14-dioxide] the “DSF ΔTm AQ STING” value (AQ STING (G230A-R293Q)) was 0.1 °C, the “DSF ΔTm WT STING” value (WT STING [1]) was 0.1 °C and the EC50 (WT STING [2]) was greater than 100 µM.

For Nc1nc2c(ncn2[C@@H]2O[C@@H]3COP(=O)(O)O[C@H]4[C@@H](O)[C@H](n5cnc6c(=O)[nH]c(N)nc65)O[C@@H]4COP(=O)(O)O[C@H]3[C@H]2O)c(=O)[nH]1 [3′3′-c-di-GMP, reference compound], the “DSF ΔTm AQ STING” value (AQ STING (G230A-R293Q)) was 7.7 °C, the “DSF ΔTm WT STING” value (WT STING [1]) was 2.6 °C and the EC50 (WT STING [2]) was 5.8 µM.
